Laboratory results taken from patent US10669258B2, “3-sulfonyl-5-aminopyridine-2,4-diol APJ agonists” (BRISTOL-MYERS SQUIBB COMPANY, priority 2016, dated 2020).
Where two headings read alike, the source gives them in different places.

Target: T1, human APJ receptor (Homo sapiens, UniProt P35414)
T1 construct: expressed in transfected cells; host or cells: HEK293
T1 sequence (P35414 1-380): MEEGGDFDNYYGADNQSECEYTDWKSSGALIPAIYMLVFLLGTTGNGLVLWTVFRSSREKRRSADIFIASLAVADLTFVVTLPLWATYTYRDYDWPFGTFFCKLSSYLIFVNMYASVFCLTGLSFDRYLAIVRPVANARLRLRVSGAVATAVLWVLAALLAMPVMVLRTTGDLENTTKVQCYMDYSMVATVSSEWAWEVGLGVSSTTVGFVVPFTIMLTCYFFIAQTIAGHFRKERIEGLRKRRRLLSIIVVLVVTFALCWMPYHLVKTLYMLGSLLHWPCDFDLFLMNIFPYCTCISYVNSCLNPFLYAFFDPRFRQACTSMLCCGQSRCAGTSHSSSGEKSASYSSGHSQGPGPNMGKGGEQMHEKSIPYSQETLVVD
Assay: Intracellular cAMP accumulation assay (APJ hcAMP, HTRF)
Format: cell-based
Conditions: HEK293 cells stably expressing human APJ receptor, inhibition of forskolin-mediated cAMP production
Summary of the method: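 HEK293 cells stably expressing the receptor (5,000/well) treated with compound plus […] and 2 μM forskolin for 30 min at room temperature; cAMP by HTRF against a cAMP standard curve. EC50 from variable-slope sigmoidal fit; Ymax as % of (Pyr1)apelin-13 inhibition.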

[1] = Table 1, read-out: hAPJ cAMP EC50 Potency range
[2] = Table 2, read-out: hAPJ cAMP EC50 Potency range

In the case of `CCCCc1nc(O)c(S(=O)(=O)c2ccc(-c3ccc(F)nc3C)cc2)c(O)c1N(CC)c1cccc(C#N)c1` [Example 178, 3-((2-butyl-5-((4-(6-fluoro-2-methylpyridin-3-yl)phenyl)sulfonyl)-4,6-dihydroxypyridin-3-yl)(ethyl)amino)benzonitrile], the EC50 [1] is reported as 0.01 to 10 nM.
In the case of `CCCCc1nc(O)c(S(=O)(=O)c2ccc(-c3ccccc3C(=O)N(C)C)cc2)c(O)c1N1CCCCc2ccccc21` [Example 179, 4′-((6-butyl-2,4-dihydroxy-5-(2,3,4,5-tetrahydro-1H-benzo[b]azepin-1-yl)pyridin-3-yl)sulfonyl)-N,N-dimethyl-[1,1′-biphenyl]-2-carboxamide], the EC50 [1] is reported as 10 to 100 nM.
Compound `CCCCc1nc(O)c(S(=O)(=O)c2ccc(-c3ccnc(F)c3C)cc2)c(O)c1N1CCCCc2ccccc21` [Example 180, 6-butyl-3-((4-(2-fluoro-3-methylpyridin-4-yl)phenyl)sulfonyl)-5-(2,3,4,5-tetrahydro-1H-benzo[b]azepin-1-yl)pyridine-2,4-diol] has an EC50 [1] of 0.01 to 10 nM.
`CCCCc1nc(O)c(S(=O)(=O)c2ccc(-c3ccccc3C(N)=O)cc2)c(O)c1N(CC)c1cccc(C#N)c1` [Example 181, 4′-((6-butyl-5-((3-cyanophenyl)(ethyl)a-mino)-2,4-dihdyroxypyridin-3-yl)sulfonyl)-[1,1′-biphenyl]-2-carboxamide] was tested, and the EC50 [1] was 0.01 to 10 nM.
Work on `CCCCc1nc(O)c(S(=O)(=O)c2ccc(-c3ccccc3C(=O)NC)cc2)c(O)c1N(CC)c1cc(C)cc(C)c1` [Example 182, 4′-((6-butyl-5-((3,5-dimethyphenyl)(ethyl)a-mino)-2,4-dihydroxypyridin-3-yl)sulfonyl)-N-methyl-[1,1′-biphenyl]-2-carboxamide] yielded an EC50 [1] of 0.01 to 10 nM.
In the case of `CCCCc1nc(O)c(S(=O)(=O)c2ccc(-c3cccnc3C)cc2)c(O)c1N(CC)c1cc(C)cc(C)c1` [Example 183, 6-butyl-5-((3,5-di-methylphenyl)(ethyl)a-mino)-3-((4-(2-methylpyridin-3-yl)phenyl)sulfonyl)pyri-dine-2,4-diol], the EC50 [1] is reported as 10 to 100 nM.
Compound `CCCCc1nc(O)c(S(=O)(=O)c2ccc(-c3ccccc3C(=O)NC)cc2)c(O)c1N1CCCCc2ccccc21` [Example 184, 4′-((6-butyl-2,4-dihydroxy-5-(2,3,4,5-tetrahydro-1H-benzo[b]azepin-1-yl)pyridin-3-yl)sulfonyl)-N-methyl-[1,1′-biphenyl]-2-carboxamide] has an EC50 [1] of 10 to 100 nM.
For `CCCCc1nc(O)c(S(=O)(=O)c2ccc(-c3ccccc3C(=O)NC)cc2)c(O)c1N(CC)c1cccc(C#N)c1` [Example 185, 4′-((6-butyl-5-((3-cyanophenyl)(ethyl)a-mino)-2,4-dihydroxypyridin-3-yl)sulfonyl)-N-methyl-[1,1′-biphenyl]-2-carboxamide], the EC50 [1] was 0.01 to 10 nM.
`CCCCc1nc(O)c(S(=O)(=O)c2ccc(-c3ccccc3C(=O)N(C)C)cc2)c(O)c1N(CC)c1cccc(C#N)c1` [Example 186, 4′-((6-butyl-5-((3-cyanophenyl)(ethyl)a-mino)-2,4-dihydroxypyridin-3-yl)sulfonyl)-N,N-dimethyl-[1,1′-biphenyl]-2-carboxamide] was tested, and the EC50 [1] was 0.01 to 10 nM.
In the case of `CCN(c1ccccc1)c1c(-c2cnc(C)s2)nc(O)c(S(=O)(=O)c2ccc(-c3ccncc3C)cc2)c1O` [Example 187, 5-(ethyl(phenyl)amino)-3-((4-(3-methylpyridin-4-yl)phenyl)sulfonyl)-6-(2-methylthiazol-5-yl)pyridine-2,4-diol], the EC50 [1] is reported as 0.01 to 10 nM.
With `CCN(c1ccccc1)c1c(-c2cnc(C)s2)nc(O)c(S(=O)(=O)c2ccc(-c3cccc(C(=O)NC)c3)cc2)c1O` [Example 188, 4′-((5-(ethyl(phenyl)amino)-2,4-dihydroxy-6-(2-methylthiazol-5-yl)pyridin-3-yl)suflonyl)-N-methyl-[1,1′-biphenyl]-3-carboxamide] the EC50 [1] was 0.01 to 10 nM.
Compound `CCN(c1ccccc1)c1c(-c2cnc(C)s2)nc(O)c(S(=O)(=O)c2ccc(-c3ccccc3C(=O)NC3CC3)cc2)c1O` [Example 189, N-cyclopropyl-4′-((5-(ethyl(phenyl)amino)-2,4-dihydroxy-6-(2-methylthiazol-5-yl)pyridin-3-yl)sulfonyl)-[1,1′-biphenyl]-2-carboxamide] has an EC50 [1] of 0.01 to 10 nM.
Compound `CCN(c1ccccc1)c1c(-c2cnc(C)s2)nc(O)c(S(=O)(=O)c2ccc(-c3ccc(F)nc3C)cc2)c1O` [Example 190, 5-(ethyl(phenyl)amino)-3-((4-(6-fluoro-2-methylpyridin-3-yl)phenyl)sulfonyl)-6-(2-methylthiazol-5-yl)pyridine-2,4-diol] has an EC50 [1] of 0.01 to 10 nM.
In the case of `CCN(c1ccccc1)c1c(-c2cnc(C)s2)nc(O)c(S(=O)(=O)c2ccc(-c3ccnc(F)c3C)cc2)c1O` [Example 191, 5-(ethyl(phenyl)amino)-3-((4-(2-fluoro-3-methylpyridin-4-yl)phenyl)sulfonyl)-6-(2-methylthiazol-5-yl)pyridine-2,4-diol], the EC50 [1] is reported as 0.01 to 10 nM.
Work on `CCN(c1ccccc1)c1c(-c2cnc(C)s2)nc(O)c(S(=O)(=O)c2ccc(-c3ccccc3C(=O)NC)cc2)c1O` [Example 192, 4′-((5-(ethyl(phenyl)amino)-2,4-dihydroxy-6-(2-methylthiazol-5-yl)pyridin-3-yl)suflonyl)-N-methyl-[1,1′-biphenyl]-2-carboxamide] yielded an EC50 [1] of 0.01 to 10 nM.
Compound `CCCCc1nc(O)c(S(=O)(=O)c2ccc(-c3ccnc(F)c3C)cc2)c(O)c1N(C)c1ccccc1C` [Example 193, 6-butyl-3-((4-(2-fluoro-3-methypyridin-4-yl)phenyl)sulfonyl)-5-(methyl(o-tolyl)amino)pyridine-2,4-diol] has an EC50 [1] of 0.01 to 10 nM.
With `CCCCc1nc(O)c(S(=O)(=O)c2ccc(-c3cccnc3C)cc2)c(O)c1N(C)c1ccccc1C` [Example 194, 6-butyl-5-(methyl(o-tolyl)amino)-3-((4-(2-methylpyridin-3-yl)phenyl)sulfonyl)pyri-dine-2,4-diol] the EC50 [1] was 10 to 100 nM.
Work on `CCCCc1nc(O)c(S(=O)(=O)c2ccc(-c3ccccc3C(N)=O)cc2)c(O)c1N(C)c1ccccc1C` [Example 195, 4′-((6-butyl-2,4-dihydroxy-5-(methyl(o-tolyl)amino)pyridin-3-yl)sulfonyl)-[1,1′-biphenyl]-2-carboxamide] yielded an EC50 [1] of 0.01 to 10 nM.
Compound `CCCCc1nc(O)c(S(=O)(=O)c2ccc(-c3ccccc3C(=O)N(C)C)cc2)c(O)c1N(C)c1ccccc1C` [Example 196, 4′-((6-butyl-2,4-dihydroxy-5-(methyl(o-tolyl)amino)pyridin-3-yl)sulfonyl)-N,N-dimethyl-[1,1′-biphenyl]-2-carboxamide] has an EC50 [1] of 0.01 to 10 nM.
In the case of `CCN(c1ccccc1)c1c(-c2ccn(C)n2)nc(O)c(C(=O)N2CCC(c3ncc(F)cc3F)C2)c1O` (stereo not drawn) [Example 197, (3-(3,5-difluoropyridin-2-yl)pyrrolidin-1-yl)(5-(ethyl(phenyl)amino)-2,4-dihydroxy-6-(1-methyl-1H-pyrazol-3-yl)pyridin-3-yl)methanone], the EC50 (hAPJ cAMP EC50 Potency range, Table 2) is reported as 0.01 to 10 nM.
In the case of `CCCCc1nc(O)c(S(=O)(=O)c2ccc(-c3ccc(F)nc3C)cc2)c(O)c1N(C)c1ccccc1C` [Example 198, 6-butyl-3-((4-(6-fluoro-2-methylpyridin-3-yl)phenyl)sulfonyl)-5-(methyl(o-tolyl)amino)pyridine-2,4-diol], the EC50 [1] is reported as 10 to 100 nM.
With `CCN(c1ccccc1)c1c(-c2ccn(C)n2)nc(O)c(C(=O)N2CCC(c3ccc(Cl)cn3)C2)c1O` (stereo not drawn) [Example 200, (3-(5-chloropyridin-2-yl)pyrrolidin-1-yl)(5-(ethyl(phenyl)amino)-2,4-dihydroxy-6-(1-methyl-1H-pyrazol-3-yl)pyridin-3-yl)methanone] the EC50 [2] was 0.01 to 10 nM.
`CCN(c1ccccc1)c1c(-c2ccn(C)n2)nc(O)c(C(=O)N2CCC(c3ccc(F)cc3F)C2)c1O` (stereo not drawn) [Example 201, (3-(2,4-difluorophenyl)pyrrolidin-1-yl)(5-(ethyl(phenyl)amino)-2,4-dihydroxy-6-(1-methyl-1H-pyrazol-3-yl)pyridin-3-yl)methanone] was tested, and the EC50 [2] was 0.01 to 10 nM.
`CCN(c1ccccc1)c1c(-c2ccn(C)n2)nc(O)c(C(=O)N2CCC(c3ccccc3F)C2)c1O` (stereo not drawn) [Example 202, (5-(ethyl(phenyl)amino)-2,4-dihydroxy-6-(1-methyl-1H-pyrazol-3-yl)pyridin-3-yl)(3-(2-fluorophenyl)pyrrolidin-1-yl)methanone] was tested, and the EC50 [2] was 0.01 to 10 nM.
Compound `CCCCc1nc(O)c(S(=O)(=O)c2ccc(-c3ccncc3C)cc2)c(O)c1N(C)c1ccccc1C` [Example 203, 6-butyl-5-(methyl(o-tolyl)amino)-3-((4-(3-methypyridin-4-yl)phenyl)sulfonyl)pyri-dine-2,4-diol] has an EC50 [1] of 0.01 to 10 nM.
Work on `CCN(c1ccccc1)c1c(-c2ccn(C)n2)nc(O)c(C(=O)N2CCC(c3ncc(Cl)cc3F)C2)c1O` (stereo not drawn) [Example 204, (3-(5-chloro-3-fluoropyridin-2-yl)pyrrolidin-1-yl)(5-(ethyl(phenyl)amino)-2,4-dihydroxy-6-(1-methyl-1H-pyrazol-3-yl)pyridin-3-yl)methanone] yielded an EC50 [2] of 0.01 to 10 nM.
In the case of `CCN(c1ccccc1)c1c(-c2ccn(C)n2)nc(O)c(C(=O)N2CCC(c3ccccc3F)C2)c1O` (stereo not drawn) [Example 205, (5-(ethyl(phenyl)amino)-2,4-dihydroxy-6-(1-methyl-1H-pyrazol-3-yl)pyridin-3-yl)(3-(2-fluorophenyl)pyrrolidin-1-yl)methanone], the EC50 [2] is reported as 0.01 to 10 nM.
